In ChEMBL document CHEMBL2069196, “Synthesis and evaluation of novel 4-[(3H,3aH,6aH)-3-phenyl)-4,6-dioxo-2-phenyldihydro-2H-pyrrolo[3,4-d]isoxazol-5(3H,6H,6aH)-yl]benzoic acid derivatives as potent acetylcholinesterase inhibitors and anti-amnestic agents” (Bioorg Med Chem, 2012):
Active and inactive are the calls of the source. The calls are words filed in the database; no cut-off is given here.

Each molecule was assayed on Mus musculus (assay: Antiamnesic activity in mouse assessed as inhibition of scopolamine-induced escape latency time at 5 mg/kg, ip measured on day 4 by Morris water maze test (reference value: 78.7 +/- 5.7 secs)). Conditions: route intraperitoneal.
Type: functional

SMILES | Time
COc1ccc([C@H]2[C@H]3C(=O)N(c4ccc(C(=O)O)cc4)C(=O)[C@H]3ON2c2ccc(C)cc2)cc1 (relative stereo) | 69.5 s

The molecules below were run against T1, Acetylcholinesterase (Rattus norvegicus, UniProt P37136) (assay: Inhibition of AChE activity in rat brain homogenate using acetylthiocholine as substrate by Ellman's method). Conditions: not given.
T1 sequence (P37136 whole entry): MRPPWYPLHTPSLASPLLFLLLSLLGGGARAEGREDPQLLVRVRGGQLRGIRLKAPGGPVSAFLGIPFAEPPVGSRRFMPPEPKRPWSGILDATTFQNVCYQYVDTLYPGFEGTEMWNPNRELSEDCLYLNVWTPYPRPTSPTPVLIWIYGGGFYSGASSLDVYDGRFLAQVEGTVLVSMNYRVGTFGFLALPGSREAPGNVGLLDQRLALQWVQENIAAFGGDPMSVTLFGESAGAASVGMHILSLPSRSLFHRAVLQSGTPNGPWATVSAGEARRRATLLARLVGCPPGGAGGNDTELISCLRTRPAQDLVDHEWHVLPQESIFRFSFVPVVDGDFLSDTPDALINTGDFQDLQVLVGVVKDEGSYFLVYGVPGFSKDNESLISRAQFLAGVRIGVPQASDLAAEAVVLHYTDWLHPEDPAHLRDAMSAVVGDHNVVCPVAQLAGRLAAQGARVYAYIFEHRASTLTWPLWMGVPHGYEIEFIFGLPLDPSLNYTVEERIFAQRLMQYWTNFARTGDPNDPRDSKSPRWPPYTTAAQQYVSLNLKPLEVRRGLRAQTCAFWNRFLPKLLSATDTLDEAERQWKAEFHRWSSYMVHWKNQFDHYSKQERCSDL
Type: tissue-based

SMILES | IC50
Cc1ccc(N2O[C@@H]3C(=O)N(c4ccc(C(=O)O)cc4)C(=O)[C@@H]3[C@@H]2c2ccccc2O)cc1 | 23.2 nM
COc1ccc([C@H]2[C@@H]3C(=O)N(c4ccc(C(=O)O)cc4)C(=O)[C@@H]3ON2c2ccccc2)cc1 | 19.1 nM
Cc1ccc(N2O[C@H]3C(=O)N(c4ccc(C(=O)O)cc4)C(=O)[C@H]3[C@@H]2c2ccc(Cl)cc2)cc1 | 20.4 nM
Cc1ccc(N2O[C@H]3C(=O)N(c4ccc(C(=O)O)cc4)C(=O)[C@H]3[C@@H]2c2ccc([N+](=O)[O-])cc2)cc1 | 24.1 nM
O=C(O)c1ccc(N2C(=O)[C@H]3[C@H](ON(c4ccccc4)[C@H]3c3ccccc3Cl)C2=O)cc1 (relative stereo) | 21.8 nM
O=C(O)c1ccc(N2C(=O)[C@H]3[C@H](ON(c4ccccc4)[C@H]3c3ccccc3)C2=O)cc1 (relative stereo) | 23.9 nM
O=C(O)c1ccc(N2C(=O)[C@H]3[C@H](ON(c4ccccc4)[C@H]3c3ccccc3O)C2=O)cc1 (relative stereo) | 23.9 nM
O=C(O)c1ccc(N2C(=O)[C@H]3[C@H](ON(c4ccccc4)[C@H]3c3ccc(O)cc3)C2=O)cc1 (relative stereo) | 22.5 nM
O=C(O)c1ccc(N2C(=O)[C@H]3[C@H](ON(c4ccccc4)[C@H]3c3cccc(Cl)c3)C2=O)cc1 (relative stereo) | 20.1 nM
O=C(O)c1ccc(N2C(=O)[C@H]3[C@H](ON(c4ccccc4)[C@H]3c3ccc(Cl)cc3)C2=O)cc1 (relative stereo) | 19.7 nM
COc1ccccc1[C@H]1[C@H]2C(=O)N(c3ccc(C(=O)O)cc3)C(=O)[C@H]2ON1c1ccccc1 (relative stereo) | 19.2 nM
COc1cccc([C@H]2[C@H]3C(=O)N(c4ccc(C(=O)O)cc4)C(=O)[C@H]3ON2c2ccccc2)c1 (relative stereo) | 19.1 nM
COc1ccc([C@H]2[C@H]3C(=O)N(c4ccc(C(=O)O)cc4)C(=O)[C@H]3ON2c2ccccc2)cc1 (relative stereo) | 18.8 nM
O=C(O)c1ccc(N2C(=O)[C@H]3[C@H](ON(c4ccccc4)[C@H]3c3ccccc3[N+](=O)[O-])C2=O)cc1 (relative stereo) | 26.1 nM
O=C(O)c1ccc(N2C(=O)[C@H]3[C@H](ON(c4ccccc4)[C@H]3c3ccc([N+](=O)[O-])cc3)C2=O)cc1 (relative stereo) | 25.8 nM
Cc1ccc(N2O[C@@H]3C(=O)N(c4ccc(C(=O)O)cc4)C(=O)[C@@H]3[C@@H]2c2ccccc2)cc1 (relative stereo) | 22.8 nM
Cc1ccc(N2O[C@@H]3C(=O)N(c4ccc(C(=O)O)cc4)C(=O)[C@@H]3[C@@H]2c2ccc(O)cc2)cc1 (relative stereo) | 21.9 nM
Cc1ccc(N2O[C@@H]3C(=O)N(c4ccc(C(=O)O)cc4)C(=O)[C@@H]3[C@@H]2c2ccccc2Cl)cc1 (relative stereo) | 21.3 nM
Cc1ccc(N2O[C@@H]3C(=O)N(c4ccc(C(=O)O)cc4)C(=O)[C@@H]3[C@@H]2c2cccc(Cl)c2)cc1 (relative stereo) | 22.2 nM
Cc1ccc(N2O[C@@H]3C(=O)N(c4ccc(C(=O)O)cc4)C(=O)[C@@H]3[C@@H]2c2ccc(Cl)cc2)cc1 (relative stereo) | 19.2 nM
COc1ccccc1[C@H]1[C@H]2C(=O)N(c3ccc(C(=O)O)cc3)C(=O)[C@H]2ON1c1ccc(C)cc1 (relative stereo) | 19.1 nM
COc1cccc([C@H]2[C@H]3C(=O)N(c4ccc(C(=O)O)cc4)C(=O)[C@H]3ON2c2ccc(C)cc2)c1 (relative stereo) | 18.8 nM

SMILES | IC50
COc1ccc([C@H]2[C@H]3C(=O)N(c4ccc(C(=O)O)cc4)C(=O)[C@H]3ON2c2ccc(C)cc2)cc1 (relative stereo) | 17.5 nM
Cc1ccc(N2O[C@@H]3C(=O)N(c4ccc(C(=O)O)cc4)C(=O)[C@@H]3[C@@H]2c2ccccc2[N+](=O)[O-])cc1 (relative stereo) | 24.3 nM
Cc1ccc(N2O[C@@H]3C(=O)N(c4ccc(C(=O)O)cc4)C(=O)[C@@H]3[C@@H]2c2ccc([N+](=O)[O-])cc2)cc1 (relative stereo) | 23.4 nM
O=C(O)c1ccc(N2C(=O)[C@@H]3[C@@H](ON(c4ccccc4)[C@H]3c3ccccc3)C2=O)cc1 (relative stereo) | 24.4 nM
O=C(O)c1ccc(N2C(=O)[C@@H]3[C@@H](ON(c4ccccc4)[C@H]3c3ccccc3O)C2=O)cc1 (relative stereo) | 24.8 nM
O=C(O)c1ccc(N2C(=O)[C@@H]3[C@@H](ON(c4ccccc4)[C@H]3c3ccc(O)cc3)C2=O)cc1 (relative stereo) | 22.7 nM
O=C(O)c1ccc(N2C(=O)[C@@H]3[C@@H](ON(c4ccccc4)[C@H]3c3ccccc3Cl)C2=O)cc1 (relative stereo) | 22.4 nM
O=C(O)c1ccc(N2C(=O)[C@@H]3[C@@H](ON(c4ccccc4)[C@H]3c3cccc(Cl)c3)C2=O)cc1 (relative stereo) | 21.8 nM
O=C(O)c1ccc(N2C(=O)[C@@H]3[C@@H](ON(c4ccccc4)[C@H]3c3ccc(Cl)cc3)C2=O)cc1 (relative stereo) | 20.9 nM
COc1ccccc1[C@H]1[C@@H]2C(=O)N(c3ccc(C(=O)O)cc3)C(=O)[C@@H]2ON1c1ccccc1 (relative stereo) | 20.6 nM
COc1cccc([C@H]2[C@@H]3C(=O)N(c4ccc(C(=O)O)cc4)C(=O)[C@@H]3ON2c2ccccc2)c1 (relative stereo) | 20.5 nM
O=C(O)c1ccc(N2C(=O)[C@@H]3[C@@H](ON(c4ccccc4)[C@H]3c3ccccc3[N+](=O)[O-])C2=O)cc1 (relative stereo) | 26.9 nM
O=C(O)c1ccc(N2C(=O)[C@@H]3[C@@H](ON(c4ccccc4)[C@H]3c3ccc([N+](=O)[O-])cc3)C2=O)cc1 (relative stereo) | 26.4 nM
Cc1ccc(N2O[C@H]3C(=O)N(c4ccc(C(=O)O)cc4)C(=O)[C@H]3[C@@H]2c2ccccc2)cc1 (relative stereo) | 22.4 nM
Cc1ccc(N2O[C@H]3C(=O)N(c4ccc(C(=O)O)cc4)C(=O)[C@H]3[C@@H]2c2ccccc2O)cc1 (relative stereo) | 24.1 nM
Cc1ccc(N2O[C@H]3C(=O)N(c4ccc(C(=O)O)cc4)C(=O)[C@H]3[C@@H]2c2ccc(O)cc2)cc1 (relative stereo) | 22.5 nM
Cc1ccc(N2O[C@H]3C(=O)N(c4ccc(C(=O)O)cc4)C(=O)[C@H]3[C@@H]2c2ccccc2Cl)cc1 (relative stereo) | 22.1 nM
Cc1ccc(N2O[C@H]3C(=O)N(c4ccc(C(=O)O)cc4)C(=O)[C@H]3[C@@H]2c2cccc(Cl)c2)cc1 (relative stereo) | 23.8 nM
COc1ccccc1[C@H]1[C@@H]2C(=O)N(c3ccc(C(=O)O)cc3)C(=O)[C@@H]2ON1c1ccc(C)cc1 (relative stereo) | 20.2 nM
COc1cccc([C@H]2[C@@H]3C(=O)N(c4ccc(C(=O)O)cc4)C(=O)[C@@H]3ON2c2ccc(C)cc2)c1 (relative stereo) | 19.9 nM
COc1ccc([C@H]2[C@@H]3C(=O)N(c4ccc(C(=O)O)cc4)C(=O)[C@@H]3ON2c2ccc(C)cc2)cc1 (relative stereo) | 18 nM
Cc1ccc(N2O[C@H]3C(=O)N(c4ccc(C(=O)O)cc4)C(=O)[C@H]3[C@@H]2c2ccccc2[N+](=O)[O-])cc1 (relative stereo) | 25.2 nM

Each molecule was assayed on Mus musculus (assay: Antiamnesic activity in mouse assessed as inhibition of scopolamine-induced escape latency time at 2 mg/kg, ip measured on day 4 by Morris water maze test (reference value: 78.7 +/- 5.7 secs)). Conditions: route intraperitoneal.
Type: functional

SMILES | Time
COc1ccc([C@H]2[C@H]3C(=O)N(c4ccc(C(=O)O)cc4)C(=O)[C@H]3ON2c2ccc(C)cc2)cc1 (relative stereo) | 74.8 s

What follows are molecules tested on Mus musculus (assay: Antiamnesic activity in mouse assessed as inhibition of scopolamine-induced escape latency time at 10 mg/kg, ip measured on day 4 by Morris water maze test (reference value: 78.7 +/- 5.7 secs)). Conditions: route intraperitoneal.
Type: functional

SMILES | Time
COc1ccc([C@H]2[C@H]3C(=O)N(c4ccc(C(=O)O)cc4)C(=O)[C@H]3ON2c2ccc(C)cc2)cc1 (relative stereo) | 49.1 s

What follows are molecules tested on Mus musculus (assay: Antiamnesic activity in scopolamine-induced amnesia mouse model assessed as increase in time spent in target quadrant at 10 mg/kg, ip measured on day 5 by Morris water maze test). Conditions: not given.
Type: functional, organism-based
Design: dose 10 mg/kg

SMILES | Activity
COc1ccc([C@H]2[C@H]3C(=O)N(c4ccc(C(=O)O)cc4)C(=O)[C@H]3ON2c2ccc(C)cc2)cc1 (relative stereo) | Active

What follows are molecules tested on Mus musculus (assay: Antiamnesic activity in scopolamine-induced amnesia mouse model assessed as increase in time spent in target quadrant at 25 mg/kg, ip measured on day 5 by Morris water maze test). Conditions: not given.
Type: functional, organism-based
Design: dose 25 mg/kg

SMILES | Activity
COc1cc2c(cc1OC)C(=O)C(CC1CCN(Cc3ccccc3)CC1)C2 (centres undefined) | Active

The molecules below were run on Mus musculus (assay: Antiamnesic activity in mouse assessed as inhibition of scopolamine-induced escape latency time at 10 mg/kg, ip measured on day 1 by Morris water maze test (reference value: 89.7 +/- 3.8 secs)). Conditions: route intraperitoneal.
Type: functional

SMILES | Time
COc1ccc([C@H]2[C@H]3C(=O)N(c4ccc(C(=O)O)cc4)C(=O)[C@H]3ON2c2ccc(C)cc2)cc1 (relative stereo) | 81.2 s

These molecules were tested on Mus musculus (assay: Antiamnesic activity in mouse assessed as inhibition of scopolamine-induced escape latency time at 5 mg/kg, ip measured on day 1 by Morris water maze test (reference value: 89.7 +/- 3.8 secs)). Conditions: route intraperitoneal.
Type: functional

SMILES | Time
COc1ccc([C@H]2[C@H]3C(=O)N(c4ccc(C(=O)O)cc4)C(=O)[C@H]3ON2c2ccc(C)cc2)cc1 (relative stereo) | 85.2 s

What follows are molecules tested on Mus musculus (assay: Antiamnesic activity in scopolamine-induced amnesia mouse model assessed as increase in time spent in target quadrant at 5 mg/kg, ip measured on day 5 by Morris water maze test). Conditions: not given.
Type: functional, organism-based
Design: dose 5 mg/kg

SMILES | Activity
COc1ccc([C@H]2[C@H]3C(=O)N(c4ccc(C(=O)O)cc4)C(=O)[C@H]3ON2c2ccc(C)cc2)cc1 (relative stereo) | Active

These molecules were tested against Butyrylcholinesterase (Rattus norvegicus, UniProt Q9JKC1) (assay: Inhibition of BuChE activity in rat plasma using […] as substrate by Ellman's method). Conditions: not given.
Type: cell-free

Butyrylcholinesterase, sequence (Q9JKC1 whole entry): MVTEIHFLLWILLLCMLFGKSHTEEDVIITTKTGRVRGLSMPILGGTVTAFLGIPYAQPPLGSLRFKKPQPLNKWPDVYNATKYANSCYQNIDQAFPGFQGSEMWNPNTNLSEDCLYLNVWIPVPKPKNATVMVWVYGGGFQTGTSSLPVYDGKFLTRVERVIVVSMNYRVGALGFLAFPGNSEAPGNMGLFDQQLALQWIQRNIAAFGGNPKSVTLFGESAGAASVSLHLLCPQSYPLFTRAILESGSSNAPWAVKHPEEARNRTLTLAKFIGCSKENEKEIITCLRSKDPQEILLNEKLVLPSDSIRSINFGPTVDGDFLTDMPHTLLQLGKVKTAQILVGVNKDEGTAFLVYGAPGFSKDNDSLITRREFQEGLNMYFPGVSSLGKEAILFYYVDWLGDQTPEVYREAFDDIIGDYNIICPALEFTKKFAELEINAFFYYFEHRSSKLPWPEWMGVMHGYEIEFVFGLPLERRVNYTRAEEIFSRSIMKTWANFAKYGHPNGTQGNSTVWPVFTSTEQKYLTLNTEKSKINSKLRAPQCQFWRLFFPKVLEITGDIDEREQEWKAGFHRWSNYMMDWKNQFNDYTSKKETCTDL

SMILES | IC50
COc1ccc([C@H]2[C@H]3C(=O)N(c4ccc(C(=O)O)cc4)C(=O)[C@H]3ON2c2ccc(C)cc2)cc1 (relative stereo) | 15300 nM

Each molecule was assayed on Mus musculus (assay: Antiamnesic activity in mouse assessed as inhibition of scopolamine-induced escape latency time at 2 mg/kg, ip measured on day 1 by Morris water maze test (reference value: 89.7 +/- 3.8 secs)). Conditions: route intraperitoneal.
Type: functional

SMILES | Time
COc1ccc([C@H]2[C@H]3C(=O)N(c4ccc(C(=O)O)cc4)C(=O)[C@H]3ON2c2ccc(C)cc2)cc1 (relative stereo) | 83.7 s
